Numbered stars: 1 amine (or outer) side, 2 acyl side, 3 side chain; on linkers, the order of the positions; unused ones are H or OH. Bridge positions count the residues as written; N and C are the ends. Peptide text beside a SMILES is read from it. X1 = N[C@@H](CS[*:1])C(=O)NC(=O)[C@H](CO)N[*:2]
What was measured:
[1] = target: T1, Proprotein convertase subtilisin/kexin type 9 (Homo sapiens, UniProt Q8NBP7); experiment: Binding affinity to human PCSK9 assessed as dissociation constant
[2] = target: T1, Proprotein convertase subtilisin/kexin type 9; experiment: Binding affinity to full length C-terminal Avi/His6-tagged human PCSK9 expressed in Expi293 cells assessed as change in enthalpy by isothermal titration calorimetric analysis
[3] = target: T1, Proprotein convertase subtilisin/kexin type 9; experiment: Inhibition of tEGF-A[HA] binding to biotinylated human PCSK9 incubated for 2 hrs by ELISA based competitive binding assay
[4] = target: T1, Proprotein convertase subtilisin/kexin type 9; experiment: Binding affinity to full length C-terminal Avi/His6-tagged human PCSK9 expressed in Expi293 cells assessed as equilibrium dissociation constant by surface plasmon resonance assay
[5] = target: T1, Proprotein convertase subtilisin/kexin type 9; experiment: Binding affinity to full length C-terminal Avi/His6-tagged human PCSK9 expressed in Expi293 cells assessed as dissociation rate constant (Koff) by surface plasmon resonance assay
[6] = target: T1, Proprotein convertase subtilisin/kexin type 9; experiment: Binding affinity to full length C-terminal Avi/His6-tagged human PCSK9 expressed in Expi293 cells assessed as change in entropy by isothermal titration calorimetric analysis
[7] = target: T1, Proprotein convertase subtilisin/kexin type 9; experiment: Inhibition of PCSK9 in human HepG2 cells assessed as restoration of surface LDLR level at 50 nM incubated for 2 hrs by Western blot analysis (Rvb= 37.5 +/- 13.9%); format: cell-based; design: scale not given: the % may be the effect or the level left
HepG2 = experiment: Cytotoxicity against human HepG2 cells assessed as reduction in cell viability at 10 uM incubated for 48 hrs by MTT assay; format: toxicity, cell-based; conditions: hepg2, 48 h
[8] = target: T1, Proprotein convertase subtilisin/kexin type 9; experiment: Inhibition of PCSK9 in human HepG2 cells assessed as restoration of PCSK9-induced reduction in fluorescent LDL uptake at 50 nM incubated for 2 hrs by fluorescence plate reader analysis (Rvb= 46.1 +/- 5.6%); format: cell-based; design: scale not given: the % may be the effect or the level left

deltaH [2] | IC50 [3] | Kd [4] | K [5] | deltaS [6] | Activity [7] | Activity [8] | Compound | Kd [1] | Activity (HepG2)
 |  |  |  |  |  |  | CC(C)C[C@H](NC(=O)[C@H](Cc1ccc(O)cc1)NC(=O)[C@H](CCC(=O)O)NC(=O)[C@H](CCC(=O)O)NC(=O)[C@H](Cc1c[nH]c2ccccc12)NC(=O)[C@H](CO)NC(=O)[C@@H](NC(=O)[C@H](Cc1ccccc1)NC(=O)[C@@H](NC(=O)[C@@H](N)[C@@H](C)O)C(C)C)[C@@H](C)O)C(=O)N[C@@H](CC(=O)O)C(=O)N[C@@H](Cc1c[nH]c2ccccc12)C(=O)N[C@H](C(=O)O)C(C)C | 660 nM | 
-37.3 kcal/mol | 1260 nM | 974 nM | 0.02 s⁻¹ | -89.5 cal/mol/K | 112% | 97.1% | CC(C)C[C@@H]1NC(=O)[C@H](Cc2ccc(O)cc2)NC(=O)[C@H](CCC(=O)O)NC(=O)[C@H](CCC(=O)O)NC(=O)[C@H](Cc2c[nH]c3ccccc23)NC(=O)[C@H](CO)NC(=O)[C@H]([C@@H](C)O)NC(=O)[C@H](Cc2ccccc2)NC(=O)[C@H](C(C)C)NC(=O)[C@H]([C@@H](C)O)NC(=O)[C@@H](N)CSSC[C@H](N)C(=O)NC(=O)[C@H](CO)NC(=O)[C@H](CC(N)=O)NC(=O)[C@H](CCCNC(=N)N)NC(=O)[C@@H]2CCCN2C(=O)[C@H](Cc2cnc[nH]2)NC(=O)[C@H](CC(C)C)NC(=O)[C@H](CC(N)=O)NC(=O)[C@H](CC(N)=O)NC(=O)[C@H](Cc2c[nH]c3ccccc23)NC(=O)[C@H](CC(=O)O)NC1=O (H-CTVFTSWEEYLDWNNLHPRN; linker 1-C via X1) |  | Non-Toxic
